# According to patent US20100303790A1, “USE OF BILIVERDIN REDUCTASE (BVR) AND BVR PEPTIDE FRAGMENTS TO TREAT CORONARY DISORDERS” (UNIVERSITY OF ROCHESTER, priority 2009, published 2010):
# Tests used:
# [1] = test system: rat neonatal cardiomyocytes; assay: BVR, HO-2 and HO-1 protein levels in rat neonatal cardiomyocytes (western blot); type: cell-based
# Method: Neonatal Rat Cardiomyocytes: Primary cultures of neonatal rat cardiomyocytes were prepared as described previously (Ding et al., “Functional Role of Phosphodiesterase 3 in Cardiomyocyte Apoptosis: Implication in Heart Failure,” Circulation 111:2469-2476 (2005) which is hereby incorporated by reference in its entirety). Briefly, fragmented ventricular tissue from 1-2 day old Sprague-Dawley rats was subjected to multiple rounds of enzymatic digestion with collagenase II (Worthington, Lakewood, N.J.). The cells were then collected by low speed centrifugation at 4° C. Non-myocytes were removed by two rounds of pre-plating the cells on culture dishes. The enriched cardiomyocytes were cultured in DMEM with 10% FBS and 10% horse serum. The day after cell adhesion, 10 μM cytosine 1-β-D-arabinofuranoside (Sigma, St. Louis, Mo.) was added to inhibit the growth of contaminating non-myocytes.
# Plasmids and Constructs: Adenovirus for expression of an endogenous PKA inhibitor (PKA251 bp) was prepared as described previously (Ding et al., “Functional Role of Phosphodiesterase 3 in Cardiomyocyte Apoptosis: Implication in Heart Failure,” Circulation 111:2469-2476 (2005), which is hereby incorporated by reference in its entirety). Rat BVR and HO-2 siRNA were designed based on the human sequences (Miralem et al., “Small Interference RNA-Mediated Gene Silencing of Human Biliverdin Reductase, but not that of Heme Oxygenase-1, Attenuates Arsenite-Mediated Induction of the Oxygenase and Increases Apoptosis in 293A Kidney Cells,” J Biol Chem 280:17084-17092 (2005), which is hereby incorporated by reference in its entirety). The BVR targeting site is at nucleotides 94-114, and the HO-2 targeting site is at nucleotides 73-93, downstream of the start codon in each case. Oligonucleotides containing the sequence of a 21 nucleotide small interference RNA were synthesized as follows: BVR siRNA, 5′-GATCCCC ([…]) TTCAAGAG ([…]) TTTTTGGAAA (SEQ ID NO:61) and 5′-AGCTTTTCCAAAAA ([…]) TCTCTTGAA ([…]) GGG (SEQ ID NO:62; HO-2 siRNA, 5′-GATCCCC ([…]) TTCAAGAGA ([…]) TTTTTGGAAA (SEQ ID NO:63) and 3′-AGCTTTTCCAAAAA ([…]) TCTCTTGAA ([…]) GGG (SEQ ID NO:64). Complementary oligonucleotides were annealed, then ligated into pSuper-Retro vector (OligoEngine Co. Seattle, Wash.). E. coli clones containing the desired constructs were identified by restriction analysis and verified by DNA sequencing. The retroviral DNA vectors for generating BVR si-rRNA and […] were transfected into the HEK293A packaging cell line, and the supernatant containing the expressed si-rBVR or si-rHO-2 retrovirus was then titrated in NIH3T3 cells. Retrovirus expressing siRNA was used to infect cells at a multiplicity of infection of 4 plaque-forming units/cell. The plasmid pcDNA-hBVR has previously been described (Lerner-Marmarosh et al., “Human Biliverdin Reductase: A Member of the Insulin Receptor Substrate Family with Serine/Threonine/Tyrosine Kinase Activity,” Proc Natl Acad Sci US A 102:7109-7114 (2005), which is hereby incorporated by reference in its entirety); pcDNA-hHO2 was constructed by cloning the HO-2 open reading frame into pcDNA3. […]
# rat heart = assay: BVR and HO-2 expression in rat heart after continuous isoproterenol infusion; type: in vivo; conditions: 400 μg isoproterenol/kg/h, four days
# Method: Western Blot Analysis: Cell lysates were prepared by homogenization in RIPA buffer (40 mM Tris-HCl, pH 7.5, 1 mM EDTA, 1 mM DTT, 0.1 mM Na3VO4, 10 μg/ml aprotinin, 5 μg/ml pepstatin, 20 μg/ml leupeptin, 1 mM bezamidine followed by centrifugation at 800×g for 10 minutes at 4° C. (Ding et al., “Functional Role of Phosphodiesterase 3 in Cardiomyocyte Apoptosis: Implication in Heart Failure,” Circulation 111:2469-2476 (2005), which is hereby incorporated by reference in its entirety). Supernatant proteins were resolved by SDS-PAGE and transferred to nitrocellulose. Western blots were examined using antibodies against β-actin (Cell Signaling), BVR (Huang et al., “Detection of 10 Variants of Biliverdin Reductase in Rat Liver by Two-Dimensional Gel Electrophoresis,” J Biol Chem 264:7844-7849 (1989), which is hereby incorporated by reference in its entirety), HO-1, HO-2 (Panahian et al., “Site of Injury-Directed Induction of Heme Oxygenase-1 and -2 in Experimental Spinal Cord Injury Differential Functions in Neuronal Defense Mechanisms?” J Neurochem 76:539-554 (2001), which is hereby incorporated by reference in its entirety), and cleaved caspase-3 (Cell Signaling, Beverly Mass.). The secondary antibody was horseradish peroxidase-conjugated goat anti-rabbit IgG (1:2,000, Bio-Rad).
# Quantitative RT-PCR: Total RNA was isolated using Trizol reagent (Invitrogen). The first-strand cDNA synthesis and quantitative polymerase chain reaction (RT-PCR) were performed as previously described (Tudor et al., “Biliverdin Reductase is a Transporter of Haem into the Nucleus and is Essential for Regulation of HO-1 Gene Expression by Haematin,” Biochem J 413:405-416 (2008), which is hereby incorporated by reference in its entirety). The following primers were used for PCR analysis: […]
# Implanting ISO Miniosmotic Pump: Miniosmotic pumps (Alzet model 2001, Durect Co., Cupertino, Calif.) were filled under sterile conditions with ISO dissolved in 0.001 N HCl, primed in sterile saline at 37° C. overnight, and aseptically implanted subcutaneously under halothane anesthesia. The ISO concentration was calculated to allow the pumps to deliver the drug at an infusion rate of 400 μg ISO base/kg/h, essentially as described by (Hayes et al., “Effects of Prolonged Isoproterenol Infusion on Cardiac and Vascular Responses to Adrenoceptor Agonists,”J Pharmacol Exp Ther 237:757-763 (1986), which is hereby incorporated by reference in its entirety).
# It might be argued that the above data arose as an artifact of cell culture. To test whether those findings also apply in vivo, four rats were continuously infused with isoproterenol for four days, after which cardiac tissue was harvested for examination of BVR and HO-2 expression. […] Also, as expected from in vitro observations, there was no change in the level of HO-2 mRNA during infusion with isoproterenol (FIG. 3B), whereas the BVR mRNA was increased.
# [2] = 10 μM isoproterenol, western blot
smiles,measurement,setting,value
CC(C)NCC(O)c1ccc(O)c(O)c1 (stereo not shown) [isoproterenol],"time for which increased levels of both proteins (BVR, HO-2) remained stable",[1]; 10 μM isoproterenol,up to 96 hours
same,time by which BVR protein expression was elevated,[1]; [2],≤ 8 h
same,time by which HO-2 protein level began to increase,[1]; [2],≤ 12 h
same,time by which HO-2 protein level reached a plateau,[1]; [2],≤ 24 h
same,HO-1 protein expression,[1]; isoproterenol treatment up to 96 hours,not detected
same,BVR mRNA in heart,rat heart,increased
same,level of HO-1 mRNA in the tissue,rat heart,no apparent change
same,level of HO-2 mRNA in heart,rat heart,no change
same,BVR protein expression in heart,rat heart; vs sham,up-regulated
same,HO-2 protein expression in heart,rat heart; vs sham,up-regulated
